Assay: Dehydration/re-hydration study (weight change over desiccants, then 33-95% RH, KF water content)
Format: physicochemical
Details: for KF moisture result: dehydration/rehydration sample
Protocol: The hexahydrate produced in Example 1 was analysed as follows. Four desiccator cabinets were prepared to contain open dishes of the following saturated salt solutions, to achieve the following approximate relative humidities (RH).
Dehydration of samples was carried out by storing them over silica gel or over P2O5 at reduced pressure (65 mm Hg). All studies were performed at ambient laboratory temperature (15-22° C.).
During this study, samples were dispensed to pre-equilibrated weighing bottles as in the hygroscopicity study, and were then stored over silica gel without reduced pressure, then over […] under reduced pressure (65 mm Hg) to dehydrate the hydrate. Once a stable weight was achieved over P2O5, samples were re-hydrated by storing them at 33% RH to 95% RH, in parallel with the hygroscopicity study as described above.
Water contents were measured by coulometric KF (Karl Fischer) titration.

With COc1cc2c(cc1OC)CN(CCc1ccc(NC(=O)c3cc(OC)c(OC)cc3NC(=O)c3cnc4ccccc4c3)cc1)CC2 [Example 1, Quinoline-3-carboxylic acid (2-{4-[2-(6,7-dimethoxy-3,4-dihydro-1H-isoquinolin-2-yl)-ethyl]-phenylcarbamoyl}-4,5-dimethoxy-phenyl)-amide] the “Cumulative % change Dehydration/Rehydration” value (75% RH, cumulative time 2441.25 h) was 1.26%, the “Cumulative % change Dehydration/Rehydration” value (75% RH, cumulative time 2482.00 h) was 1.23% and the “Cumulative % change Dehydration/Rehydration” value (75% RH, cumulative time 2577.75 h) was 1.35%. For the same compound, the “Cumulative % change Dehydration/Rehydration” value (75% RH, cumulative time 2609.75 h) was 1.38%, the “Cumulative % change Dehydration/Rehydration” value (75% RH, cumulative time 2681.25 h) was 1.41% and the “Cumulative % change Dehydration/Rehydration” value (75% RH, cumulative time 2770.25 h) was 1.36%. The “Cumulative % change Dehydration/Rehydration” value (75% RH, cumulative time 2817.75 h) was 1.44%, the “Cumulative % change Dehydration/Rehydration” value (95% RH, cumulative time 2825.25 h) was 2.28% and the “Cumulative % change Dehydration/Rehydration” value (95% RH, cumulative time 2841.75 h) was 2.73%. The “Cumulative % change Dehydration/Rehydration” value (95% RH, cumulative time 2915.75 h) was 3.06%, the “Cumulative % change Dehydration/Rehydration” value (95% RH, cumulative time 2937.75 h) was 3.21% and the “Cumulative % change Dehydration/Rehydration” value (95% RH, cumulative time 2991.25 h) was 3.25%. The “Cumulative % change Dehydration/Rehydration” value (95% RH, cumulative time 3082.25 h) was 3.86%, the “Cumulative % change Dehydration/Rehydration” value (95% RH, cumulative time 3130.00 h) was 4.12% and the “Cumulative % change Dehydration/Rehydration” value (95% RH, cumulative time 3182.25 h) was 3.99%. The “Cumulative % change Dehydration/Rehydration” value (95% RH, cumulative time 3252.25 h) was 4.19%, the “Cumulative % change Dehydration/Rehydration” value (95% RH, cumulative time 3350.25 h) was 4.22% and the “Cumulative % change Dehydration/Rehydration” value (95% RH, cumulative time 3422.25 h) was 4.35%. The “Cumulative % change Dehydration/Rehydration” value (95% RH, cumulative time 3636.25 h) was 5.31%, the “Cumulative % change Dehydration/Rehydration” value (95% RH, cumulative time 4332.75 h) was 5.58% and the “Cumulative % change Dehydration/Rehydration” value (P2O5 with vacuum, cumulative time 425.00 h) was −10.85%. For the same compound, the “Cumulative % change Dehydration/Rehydration” value (P2O5 with vacuum, cumulative time 452.00 h) was −11.00%, the “Cumulative % change Dehydration/Rehydration” value (P2O5 with vacuum, cumulative time 476.75 h) was −11.19% and the “Cumulative % change Dehydration/Rehydration” value (P2O5 with vacuum, cumulative time 570.25 h) was −11.43%. The “Cumulative % change Dehydration/Rehydration” value (P2O5 with vacuum, cumulative time 641.00 h) was −11.35%, the “Cumulative % change Dehydration/Rehydration” value (P2O5 with vacuum, cumulative time 760.50 h) was −11.51% and the “Cumulative % change Dehydration/Rehydration” value (P2O5 with vacuum, cumulative time 904.25 h) was −11.46%. The “Cumulative % change Dehydration/Rehydration” value (P2O5 with vacuum, cumulative time 1071.00 h) was −11.54%, the “Cumulative % change Dehydration/Rehydration” value (P2O5 with vacuum, cumulative time 1144.00 h) was −11.48% and the “initial water content of the sample” value (before dehydration) was 12.5%. For the same compound, the “notional water content after dehydration and re-hydration at 33% RH” value (corresponding to the net weight change) was “about 11.5%”, the “net weight change after dehydration and re-hydration at 33% RH” value (dehydrated then re-hydrated at 33% RH) was “about −1%” and the “final weight change on dehydration” value (dehydration over increasing desiccating conditions) was −11.5%. The KF moisture result (95% RH, cumulative time 4332.75 h (end)) was “(15.81) % w/w”, the KF moisture result (printed in first 33% RH row (1147.25 h), after dehydration over P2O5) was “(3.82) % w/w” and the KF moisture result (printed in first row (silica, no vacuum, 3.00 h), initial value before dehydration) was “(12.53) % w/w”. The “Cumulative % change Dehydration/Rehydration” value (re-hydration at 33% RH, cumulative time 1147.25 h) was −6.61%, the “Cumulative % change Dehydration/Rehydration” value (re-hydration at 33% RH, cumulative time 1150.75 h) was −4.80% and the “Cumulative % change Dehydration/Rehydration” value (re-hydration at 33% RH, cumulative time 1168.00 h) was −2.47%. For the same compound, the “Cumulative % change Dehydration/Rehydration” value (re-hydration at 33% RH, cumulative time 1240.75 h) was −0.68%, the “Cumulative % change Dehydration/Rehydration” value (re-hydration at 33% RH, cumulative time 1268.50 h) was −0.62% and the “Cumulative % change Dehydration/Rehydration” value (re-hydration at 33% RH, cumulative time 1312.50 h) was −0.62%. The “Cumulative % change Dehydration/Rehydration” value (re-hydration at 33% RH, cumulative time 1431.25 h) was −0.83%, the “Cumulative % change Dehydration/Rehydration” value (re-hydration at 33% RH, cumulative time 1502.25 h) was −0.66% and the “Cumulative % change Dehydration/Rehydration” value (re-hydration at 33% RH, cumulative time 1672.50 h) was −0.91%. For the same compound, the “Cumulative % change Dehydration/Rehydration” value (re-hydration at 33% RH, cumulative time 1741.50 h) was −0.97%, the “Cumulative % change Dehydration/Rehydration” value (silica, no vacuum, cumulative time 3.00 h) was −2.29% and the “Cumulative % change Dehydration/Rehydration” value (silica, no vacuum, cumulative time 8.50 h) was −3.58%. For the same compound, the “Cumulative % change Dehydration/Rehydration” value (silica, no vacuum, cumulative time 24.50 h) was −5.92%, the “Cumulative % change Dehydration/Rehydration” value (silica, no vacuum, cumulative time 30.50 h) was −6.39% and the “Cumulative % change Dehydration/Rehydration” value (silica, no vacuum, cumulative time 56.00 h) was −8.06%. For the same compound, the “Cumulative % change Dehydration/Rehydration” value (silica, no vacuum, cumulative time 80.00 h) was −8.50%, the “Cumulative % change Dehydration/Rehydration” value (silica, no vacuum, cumulative time 237.50 h) was −8.96% and the “Cumulative % change Dehydration/Rehydration” value (silica, no vacuum, cumulative time 288.50 h) was −9.07%. For the same compound, the “Cumulative % change Dehydration/Rehydration” value (silica, with vacuum, cumulative time 308.00 h) was −9.07% and the “Cumulative % change Dehydration/Rehydration” value (silica, with vacuum, cumulative time 401.00 h) was −8.76%.

Source: patent US7524861B2, “Process for the preparation of a hydrate of an anthranilic acid derivative” (priority 2002, dated 2009)
